Results: patent US20250326839A1, “TREATMENT OF DISEASES RELATED TO COLONY-STIMULATING FACTOR 1 RECEPTOR DYSFUNCTION USING TREM2 AGONISTS” (Vigil Neuroscience, Inc., priority 2020, published 2025)

System: human monocyte-derived macrophages (hMDMs)
Test: Example 2E: CSF1R inhibition by PLX5622, confluence and morphology (Incucyte)
Format: cell-based
Conditions: PLX5622 1 μM relative to vehicle alone
Experimental: PBMCs were isolated from fresh, whole blood from human donors. CD14+ monocytes were isolated using positive magnetic selection (Miltenyi). Cells were plated in UpCell® low-adhesion plates and incubated in culture media with 50 ng/mL CSF1 for 48 hours. After 48 hours, cells were non-enzymatically harvested and plated at 25,000 cells per well in cell culture plates coated with 10 μg/mL of either Ab-3 or a matching isotype control. PLX5622 was immediately added to the cultures to 1 μM, and plates were incubated in a humidified incubator at 37 C, 5% CO2 for an additional 96 hours. During incubation, cells were monitored every two hours using an Incucyte S3® analyzer (2 fields of view per well, imaged at 10×). Confluence was measured using built in S3 software, while area and eccentricity (cell shape) were measured using the built in “Cell By Cell” analysis software. Significance was determined by Student's T-test, two-tailed in Graphpad Prism.

With `COc1ncc(F)cc1CNc1ccc(Cc2c[nH]c3ncc(C)cc23)c(F)n1` [PLX5622, reference compound] the confluence (FIG. 5) was “significant reduction in confluence” and the “cells with “high area, high eccentricity” (ramified)” value (FIG. 6) was “significant reduction in cells with “high area, high eccentricity””.
